System: HEK-293T
Assay: Incucyte cell viability with HEK293T; also: filed as whole numbers so only -1 and 0 and 1 occur
Type: toxicity, cell-based
Conditions: human, 10 µM, compound concentration 10 uM

Measured: Growth Rate

C=CC(=O)Nc1cccc(Sc2nc(Nc3ccc(N4CCN(C)CC4)cc3)ncc2Cl)c1
0: 6 h, replicate number 1, timepoint 6 hours | 12 h, replicate number 1, timepoint 12 hours | 18 h, replicate number 1, timepoint 18 hours | 24 h, replicate number 1, timepoint 24 hours

From ChEMBL document CHEMBL4689842, “EUbOPEN Chemogenomics Library wave 1” (2021)
